Results taken from article PMC7321103, “In Vitro Metabolic Transformation of Pharmaceuticals by Hepatic S9 Fractions from Common Carp (Cyprinus carpio)” (Molecules, 2020).
Where two headings read alike, the source gives them in different places. Each block holds one compound with its values, some of them ahead of it.

Tests used:
[1] = system: common carp hepatic S9 fraction; test: Metabolite formation in common carp hepatic S9 fraction (not induced and BNF induced); format: in vitro ADME, common carp (Cyprinus carpio); details: for Metabolites Concentration, BNF Fish S9: carp induced with 50 mg/kg BNF; for Metabolites Concentration, BNF Fish S9 / Metabolites Concentration, Fish S9: 2 µM parent pharmaceutical, 1 h, 21 °C; for Metabolites Concentration, Fish S9: not induced carp, 1 mg protein
Method: Fish. Fish were collected from a fishpond with a low concentration level of pharmaceuticals (305-880 ng/POCIS). Thus, fish were stocked in the pond for 1 year with a natural photoperiod. The fish were allowed to eat and swim freely in the pond without interaction with humans and avoiding stress conditions. In total, 1-year-old common […] = 12) weighing 695 ± 116 g (mean ± standard deviation) and length 330 ± 19 mm were collected during spring 2018. Additionally, β-naphtaflavone (BNF) was administrated into four fish at levels of 50 mg/kg of BNF in corn oil. Following administration, individuals were kept in a separate aquaria for 48 h, in order to achieve CYP1A1 induction. The fish were then sacrificed according to the ethical rules of the EU harmonized Animal Welfare Act of the Czech Republic. The unit is licensed (No. 53100/2013-MZE-17214), according to the Czech National Directive (the Law against Animal Cruelty, No. 246/1992). Before sampling, fish were anesthetized in an ice bath, and their spinal cords were immediately cut. Fish was bloodless and hepatic tissues were collected and stored at -80 °C before use for the preparation of S9 fraction. Hepatic tissue (approx. 1.2 g) of twelve individual common […] two individual sheep were homogenized in 10 mM Tris-HCl buffer, pH 7.4, containing 250 mM sucrose separately using an T-25 Ultra Turrax homogenizer Ika (Staufen, Germany) followed by centrifugation at 10,000× g for 15 min at 4 °C to obtain S9 fractions. The protein concentration in S9 fractions was determined by the colorimetric method according to Smith et al. at 595 nm. The S9 fractions were diluted to 10 mg/mL protein content. To account for the gender effect, four piscine S9 fractions were combined in one pool with the same ratio of males/females (1:1). The incubations were performed using three S9 pools from common carp. One pool was prepared from ovine S9 fractions. […] According to Hou et al. […] The concentrations of the parent compound and its main metabolites (metoprolol acid, N-desmethylcitalopram, norsertraline, and O-desmethylvenlafaxine) were determined by LC HRMS (Thermo Fisher Scientific, San Jose, CA, USA). The chromatographic separation was performed on a Hypersil Gold aQ analytical column (50 × 2.1 mm; 5 μm particles, Thermo Fisher Scientific). […] A heated electrospray ionization (HESI) source was used for the ionization of the target compounds with a spray voltage of 3.5 kV and nitrogen as the sheath gas (40 arbitrary units), auxiliary gas (10 arbitrary units), and collision gas. The full scan mode with high resolution (70000 FWHM) in range 100-750 m/z was used with the AGC target 3e6, and the maximum filling time 50 ms. Data acquisition was performed with Xcalibur 4.3 Software, and data processing was performed using TraceFinder 3.3 Software (both Thermo Fisher Scientific, San Jose, CA, USA). Internal standard and matrix matching standard methods were used for the quantification of target analytes.

[2] = Control incubation of pharmaceutical without S9 fraction; details: 2 µM parent pharmaceutical, no S9, 1 h
Method: To investigate the formation of metabolites, one concentration of pharmaceutical (2 μM) was incubated with 1 mg of protein in piscine or ovine S9 fraction, 1 mM NADPH, and 0.3 mM UDPGA in a potassium phosphate buffer (50 mM, 7.4 pH) (Table 2). The total volume of each incubation was 0.5 mL. The incubation mixture was vortexed and incubated for 1 h in a water bath (at 21 °C for fish and 37 °C for ovine). Then, the reaction was stopped by the addition of 0.5 mL ice-cold methanol, vortexed, and centrifuged at 10,000× g for 10 min. […] Sheep hepatic S9 fraction was used as a positive control, because sheep S9 fractions are known to metabolise the studied compounds. […] The supernatant was filtrated (0.45 μm regenerated cellulose filter) and the internal standard for chemical analyses was added. […] S9 fractions with TNBP were incubated under the same conditions as other pharmaceuticals.

[3] = design: method as in PMID 29729738; details: fish from pond receiving WWTP water; cited from earlier work
[4] = system: human hepatic microsomes; design: method as in PMID 10494454; details: cited from earlier work
[5] = system: sheep hepatic S9 fraction; test: Metabolite formation in sheep hepatic S9 fraction; format: in vitro ADME; details: 2 µM parent pharmaceutical, 1 mg protein, 1 h, 37 °C
Method: Sheep. Hepatic tissue from one male and one female Suffolk sheep (age, 2 years; weight 70-80 kg) were collected at a slaughterhouse in Vodňany town, Czech Republic, and stored at -80 °C. Sheep is a relatively new animal model, which has started to be used in veterinarian investigations related to drug-drug interactions, as well as for effective therapy and the limitation of drug-resistance development. Sheep phase I biotransformation enzymes, including CYPs-dependent metabolic activities in sheep liver, were already characterized by Szotakova et al., Maté et al. and Stuchlíková et al.. The use of the S9 fraction from sheep hepatic tissue could represent the mammalian metabolic system in relation to selected pharmaceuticals. […] The protein concentration in S9 fractions was determined by the colorimetric method according to Smith et al. at 595 nm. […] The concentrations of the parent compound and its main metabolites (metoprolol acid, N-desmethylcitalopram, norsertraline, and O-desmethylvenlafaxine) were determined by LC HRMS (Thermo Fisher Scientific, San Jose, CA, USA). […] Internal standard and matrix matching standard methods were used for the quantification of target analytes.

[6] = Kinetics of N-desmethylcitalopram formation from citalopram in common carp S9; format: in vitro ADME, common carp (Cyprinus carpio); details: common carp (Cyprinus carpio), hepatic S9 fraction, Michaelis-Menten fit, citalopram 0.01-100 μM
Method: (§1) Kinetic analysis using multiple substrate concentrations was conducted only with citalopram using the same procedure as above-described. The substrate concentrations were 0.01, 0.03, 0.1, 1, 10, 50, 75, and 100 μM of citalopram.
(§2) The data were analyzed using non-linear regression analysis (GraphPad Prism version 4.0 for Windows, GraphPad Software, San Diego, CA, USA). The data were fitted to the Michaelis-Menten equation and two enzyme models. The goodness of fit was assessed by comparison of the coefficient of determination (r^2). Visual analysis of Eadie-Hofstee plots was used to estimate whether one or more enzymes participate in the reaction.

[7] = system: common carp hepatic S9 fraction; test: as above; format: in vitro ADME, common carp (Cyprinus carpio); details: Michaelis-Menten fit, citalopram 0.01-100 μM
Method: as §1, §2

[8] = system: CYP1A1; test: Inhibition of N-desmethylcitalopram formation by ellipticine in common carp S9; format: biochemical, common carp (Cyprinus carpio); details: citalopram 5 μM
Method: Ellipticine (a specific inhibitor of mammalian and piscine CYP1A1) was used to investigate if CYP1A1 was responsible for metabolite formation. Incubations were performed only with citalopram. Three concentrations of ellipticine were used in the final incubations: 0.125, 1.25, and 12.5 μM. The choice of these concentrations was based on the previous results. The degree of inhibition was assessed by comparison of metabolite formation in the presence and absence of inhibitor. The incubation without inhibitor contained the same amount of methanol as in the incubations with inhibitor (0.5% from total incubation volume).

[9] = system: CYP3A-like; design: method as in PMID 29704845; details: rainbow trout microsomal fraction; cited from earlier work
[10] = system: CYP1A; design: method as in PMID 29704845; details: rainbow trout microsomal fraction; cited from earlier work

SMILES: CC(C)NCC(O)COc1ccc(CC(=O)O)cc1 (stereo not shown) [Metoprolol acid, metoprolol acid]
Metabolite formation, fold reduction in induced fish vs not induced S9 fraction [1]: 3.4 fold

SMILES: CN(C)CCCC1(c2ccc(F)cc2)OCc2cc(C#N)ccc21 (stereo not shown) [citalopram, Citalopram]
Average concentration in hepatic tissue of common carp [3]: 3.1 ± 2.9 ng/g wet weight | Vmax of citalopram N-demethylation, first enzyme ([4]; biphasic model): 25 pmol/min/mg | Vmax of citalopram N-demethylation, second enzyme ([4]; biphasic model): 158 pmol/min/mg | Km ([4]; biphasic model, read-out: Km of citalopram N-demethylation, first enzyme): 17.3 µM | Km ([4]; biphasic model, read-out: Km of citalopram N-demethylation, second enzyme): 185 µM

SMILES: Cc1c2ccncc2c(C)c2c1[nH]c1ccccc12 [ellipticine]
Reduction of N-desmethylcitalopram formation ([8]; 0.125 μM ellipticine): 30 ± 10% | Inhibition of N-desmethylcitalopram formation ([8]; 1.25 μM ellipticine): completely inhibited | Inhibition of N-desmethylcitalopram formation ([8]; 12.5 μM ellipticine): completely inhibited

SMILES: COc1ccc(C(CN(C)C)C2(O)CCCCC2)cc1 (stereo not shown) [venlafaxine]
Effect on BFCOD activity [9]: did not alter | Effect on EROD activity [10]: did not alter

Now from value to compound, other results behind:

Metabolite formation, fold higher in induced fish than in not induced S9 fraction ([1]; BNF induced vs not induced carp S9): 5.3 fold | Metabolites Concentration, BNF Fish S9 [1]: 1557 pmol/min/mg | Metabolites Concentration, Fish S9 [1]: 295 pmol/min/mg | Metabolites Concentration, Control (without S9) [2]: <LOQ | Metabolites Concentration, Sheep S9 [5]: 2309 pmol/min/mg | Km [6]: 29.7 ± 4.6 µM
SMILES: CNCCCC1(c2ccc(F)cc2)OCc2cc(C#N)ccc21 (stereo not shown) [N-desmethylcitalopram]
Average concentration in hepatic tissue of common carp [3]: 2.6 ± 1.4 ng/g wet weight | Vmax for N-desmethylcitalopram, monophasic model ([4]; monophasic model): 183 to 281 pmol/min/mg | Vmax of N-desmethylcitalopram formation [7]: 1781 ± 90 pmol/min/mg

Metabolite formation, fold higher in induced fish than in not induced S9 fraction [1]: 1.7 fold
SMILES: N[C@H]1CC[C@@H](c2ccc(Cl)c(Cl)c2)c2ccccc21 [Norsertraline, norsertraline]

Metabolites Concentration, BNF Fish S9 [1]: <LOQ | Metabolites Concentration, Fish S9 [1]: <LOQ | Metabolites Concentration, Control (without S9) [2]: <LOQ | Metabolites Concentration, Sheep S9 [5]: 823 pmol/min/mg
SMILES: CN(C)CC(c1ccc(O)cc1)C1(O)CCCCC1 (stereo not shown) [O-desmethylvenlafaxine]
